This note sets out measurements from patent US10154973B2, “Quinone compounds for treating APE1 mediated diseases” (Indiana University Research and Technology Corporation, priority 2011, dated 2018).

One series in a line: Pharmacokinetics in mice. The conditions noted are these: mouse, in vivo, approximate values. The protocol: The pharmacokinetics of test compounds are evaluated in mice using conventional methods, using oral (25 mg/kg), intraperitoneal (25 mg/kg), and intravenous routes (5 mg/kg) of administration. The following approximate Cmax (ng/mL) values for test compounds are determined.

The subject of a further series is Hey-C2. The series is described as follows: Growth inhibition of ovarian cancer cells, Hey-C2. In kind it is cell-based. The conditions noted are these: ovarian cancer cell line. The protocol: (§1) Test compounds are assayed for growth inhibition ability against two 2 ovarian cancer cell lines. IC50 values for test compounds are determined.
For a further series, the system named is Skov-3X. The series is described as follows: Growth inhibition of ovarian cancer cells, Skov-3X. In kind it is cell-based. The conditions noted are these: ovarian cancer cell line. The procedure: as §1
For a further series, the system named is pGF-NFκB in SF767 cells. The series is described as follows: NFκB luciferase reporter assay in SF767 glioma cells. In kind it is cell-based. The conditions noted are these: SF767 glioma cell line; luciferase activity 40 hrs after treatment; stable pGF-NFκB. The protocol:
(§2) Using lentiviral transcriptional reporter vectors, pGreenFire-NFkB, and pGreenFire-mCMV (negative control), from System Biosciences Inc. (Mountainview, Calif.), HEK293-T cells (Lonza, Inc. Allendale, N.J.) are transfected with the constructs and the media containing the viral supernatants is collected. To generate stably expressing reporter cell lines, cancer cell lines are infected with the viral supernatant and the cells are selected with puromycin ([…]) for 5 days. For the experiments, test compound is added and left on the cells before being assayed for luciferase activity. SKOV-3X, Panc1, and SF767 cells with the stable pGF-NFκB are treated with test compounds and assayed 40 hrs later for luciferase activity. Panc1 is a pancreatic cancer cell line; SF767 is the glioma cell line. IC50 values for test compounds are determined.
(In general: In a reporter assay the amount or activity of a reporter protein is the signal.)

The subject of another series is pGF-NFκB in Panc1 cells. The series is described as follows: NFκB luciferase reporter assay in Panc1 pancreatic cancer cells. In kind it is cell-based. The conditions noted are these: Homo sapiens, PANC-1; luciferase activity 40 hrs after treatment; stable pGF-NFκB; read-out: Panel IC50. The protocol:
as §2

A further series deals with Ape1 (Homo sapiens, UniProt P27695). The series is described as follows: Redox EMSA assay. The class given is biochemical. The conditions noted are these: electrophoresis, 0.02 mM DTT. The procedure:
Conventional electrophoresis measuring Ape1 expression with 0.02 mM DTT is used to evaluate test compounds. […] Additional details are described in Fishel et al. Mol Cancer Ther. 2011 September; 10(9):1698-708 & Luo et al., Antioxid Redox Signal. 2008 November; 10(11):1853-67.

In another series the test system is PaCa-2 cells. The series is described as follows: Pancreatic cancer cell xenograft. The class given is in vivo. The conditions noted are these: orally 25 mg/kg twice daily for 18 days; PaCa-2 s.c. in NOD/SCID mice; FIG. 1. The protocol: PaCa-2 cells (2.5×10^6) in 0.2 mL of DMEM media were implanted s.c. into the right flanks of NOD/SCID mice. Test compounds are dissolved in 4% CremophorEL:EtOH (1:1)/saline solution or methylcellulose (0.5%, Sigma). When tumor volumes are greater than about 100 mm^3, test compounds are administered, such as orally, twice daily, 8 hours apart, at 25 mg/kg for 10 to 18 days (5 days on 2 days off schedule). Tumors are measured biweekly and followed for approximately 6 weeks. Tumor volumes are monitored by caliper measurement [tumor volume=length×(perpendicular width)2×0.5] and the average tumor volume in mm^3 for each treatment group is plotted. Treatment corresponds to days 1 to 15. Average tumor volume±SE for the vehicle compared to test compounds (n=7) are analyzed by statistical analysis. Additional details are described in Fishel et al. Mol Cancer Ther. 2011 September; 10(9):1698-708.

Another series deals with NFkB. The series is described as follows: Ape1/Ref1 transcription factor activation (NFkB transactivation). The class given is cell-based. The conditions noted are these: Hey-C2, SF767, Panc1, and Skov-3X cell lines. The text has this:
The DNA base excision-repair pathway is responsible for the repair of DNA damage caused by oxidation/alkylation and protects cells against the effects of endogenous and exogenous agents. Removal of the damaged base creates a baseless (AP) site. AP endonuclease1 (Ape1) acts on this site to continue the BER-pathway repair. Failure to repair baseless sites leads to DNA strand breaks and cytotoxicity. In addition to the repair role, Ape1 also functions as a major redox-signaling factor to reduce and activate transcription factors such as AP1, p53, HIF-1alpha, and others that control the expression of genes important for cell survival and cancer promotion and progression. Thus, the Ape1 protein interacts with proteins involved in DNA repair, growth-signaling pathways, and pathways involved in tumor promotion and progression. Test compounds are evaluated for activity in decreasing transactivation of transcription factors.

Like-named read-outs stand apart in the source and are kept apart here.

Ape1, sequence (P27695 whole entry): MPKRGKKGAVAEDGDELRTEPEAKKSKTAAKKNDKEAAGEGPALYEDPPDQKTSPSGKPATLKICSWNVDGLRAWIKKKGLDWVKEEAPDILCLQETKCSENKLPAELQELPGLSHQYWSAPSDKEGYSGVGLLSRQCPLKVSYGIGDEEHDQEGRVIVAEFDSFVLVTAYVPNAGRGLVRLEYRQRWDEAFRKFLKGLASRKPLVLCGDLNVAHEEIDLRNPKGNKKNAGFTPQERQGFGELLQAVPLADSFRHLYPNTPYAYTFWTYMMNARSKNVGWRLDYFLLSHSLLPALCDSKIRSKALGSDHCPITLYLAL

As usually defined, the Cmax is the maximum level reached in the sampled fluid or tissue. Broadly, the IC50 is the concentration that gives 50% inhibition. As to `COC1=C(C=C(C)C(=O)N(C)C)C(=O)c2ccccc2C1=O` [Example 5a], the Cmax in “Pharmacokinetics in mice” (intravenous 5 mg/kg, read-out: IV Cmax) was found to be 200 ng/mL; in “Pharmacokinetics in mice” (ip, intraperitoneal 25 mg/kg, read-out: IP Cmax), 2000 ng/mL; in “Pharmacokinetics in mice” (oral 25 mg/kg, read-out: Oral Cmax), 200 ng/mL. Besides, the IC50 in the series on Hey-C2 came out at 18 µM; in the series on Skov-3X, 17 µM; in the series on pGF-NFκB in SF767 cells, 10 µM; in the series on pGF-NFκB in Panc1 cells it was 5 µM.
On to `CCCCCCCCCC(=CC1=C(C)C(=O)C(OC)=C(OC)C1=O)C(=O)NOC` [Example 6a], for which the “concentration showing significant signal reduction” value on Ape1 is 20 µM. In addition, the “Ape1 expression knock-down compared to E3330” value on Ape1 (in vitro) is on record as “improved expression knock-down compared to E3330”. Besides, in the series on PaCa-2 cells, the “tumor volume compared to untreated control” value is recorded as “significant reduction in tumor volume”. Also, the “% transactivation of NFkB” value in the series on NFkB is on record as “significant decrease”. Moreover, the IC50 came out at 28 µM with Hey-C2, 38 µM in the series with Skov-3X, 12 µM in the series with pGF-NFκB in SF767 cells and 9 µM with pGF-NFκB in Panc1 cells.
As to `CCCC(=CC1=C(OC)C(=O)c2ccccc2C1=O)C(=O)N(CC)CC` [Example 5c], the IC50 came out at 25 µM in the series with Hey-C2, 30 µM in the series on Skov-3X, 18 µM in the series with pGF-NFκB in SF767 cells and 8 µM in the series on pGF-NFκB in Panc1 cells.
Consider `CCCCCCCCC/C(=C\C1=C(C)C(=O)C(OC)=C(OC)C1=O)C(=O)O` [Example E3330, reference compound], for which, at Ape1, the “concentration showing significant signal reduction” value stood at 30 µM. Moreover, the half-inhibitory concentration (IC50) was roughly 100 µM in the series with Hey-C2, roughly 100 µM in the series on Skov-3X, 80 µM in the series on pGF-NFκB in SF767 cells and 52 µM in the series on pGF-NFκB in Panc1 cells.
As to `CCCCCCCCCC(=CC1=C(C)C(=O)C(OC)=C(OC)C1=O)C(=O)N(C)OC` [Example 6b], the concentration for half-maximal inhibition (IC50) in the series on Hey-C2 is 22 µM; in the series on Skov-3X it was 32 µM; with pGF-NFκB in SF767 cells it was 18 µM; with pGF-NFκB in Panc1 cells, 10 µM.
The like results for `CCCC(=CC1=C(OC)C(=O)c2ccccc2C1=O)C(=O)NOC` [Example 5d] were, in that order, 11 µM, 10 µM, 10 µM and 7 µM.
